In US20110288116A1, “IAP INHIBITORS” (TETRALOGIC PHARMACEUITCAL CORPORATION, priority 2008, published 2011):

Molecular target: T1, cIAP-1 BIR-3 (Homo sapiens, UniProt Q13490)
T1 construct: "cIAP-1 BIR-3"
Test: Fluorescence polarization binding to cIAP-1 BIR-3 (competition with AbuRPF-K(5-Fam)-NH2)
Settings: cells marked (cIAP-1): cIAP-1 BIR-3; reported as range class
Protocol: The binding affinities of the compounds are reported as a Kd value. Briefly, various concentrations of test peptides were mixed with 5 nM of the fluorescently labeled peptide (i.e., a mutated N-terminal Smac peptide—AbuRPF-K(5-Fam)-NH2) and 40 nM of the BIR3 for 15 min at RT in […] of 0.1M Potassium Phosphate buffer, pH 7.5 containing […] bovine g-globulin. Following incubation, the polarization values (mP) were measured on a Victor2V (available from PerkinElmer Life Sciences) using a 485 nm excitation filter and a 520 nm emission filter. The reported Kd values are supplied as ranges (A=<0.1 μM, B=0.1 μM to C=>1 μM to 10 μM, D=>10 μM) and, unless otherwise indicated, are the Kd for XIAP BIR-3.

T1 sequence (Q13490 266-343 limits assumed): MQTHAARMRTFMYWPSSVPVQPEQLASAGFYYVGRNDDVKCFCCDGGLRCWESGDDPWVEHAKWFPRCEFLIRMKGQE

Row | Molecule | Kd [nM]
1 | CCN[C@@H](C)C(=O)N[C@H](C(=O)N1CC[C@@H](O)[C@H]1Cc1c[nH]c2ccccc12)C(C)(C)C [OO′] | < 100
2 | CN[C@@H](C)C(=O)N[C@H](C(=O)N1C[C@@H](O)C[C@H]1C(=O)c1c[nH]c2cc(F)ccc12)C(C)(C)C [PPP, N-{1-[2-(6-Fluoro-1H-indole-3-carbonyl)-4-hydroxy-pyrrolidine-1-carbonyl]-2,2-dimethyl-propyl}-2-methylamino-propionamide] | < 100
3 | CN[C@@H](C)C(=O)N[C@H](C(=O)N1C[C@@H](O)C[C@H]1C(=O)c1c[nH]c2cc(F)ccc12)C(C)C [QQQ] | < 100
4 | CN[C@H](C(=O)N[C@H](C(=O)N1CC[C@@H](O)[C@H]1Cc1c[nH]c2ccccc12)C1CC1)C1CC1 [QQ′] | > 100
5 | CC[C@H](NC)C(=O)N[C@H](C(=O)N1CC[C@@H](O)[C@H]1Cc1c[nH]c2ccccc12)C1CC1 [RR′] | < 100
6 | CCN[C@@H](C)C(=O)N[C@H](C(=O)N1CC[C@@H](O)[C@H]1Cc1c[nH]c2ccccc12)C1CC1 [SS′] | > 100
7 | CN[C@@H](C)C(=O)N[C@H](C(=O)N1C[C@@H](O)C[C@H]1C[C@@H]1CN(C(C)=O)c2ccccc21)C1CCCCC1 [TTT] | < 100
8 | CCN[C@@H](C)C(=O)N[C@H](C(=O)N1CC[C@H](OC)[C@H]1Cc1c(Cl)[nH]c2cc(F)ccc12)C(C)C [U′] | > 100
9 | CN[C@@H](C)C(=O)N[C@H](C(=O)N1CC[C@@H](O)[C@H]1Cc1c[nH]c2ccccc12)C1CC1 [VV′] | < 100
10 | CCN[C@@H](C)C(=O)N[C@H](C(=O)N1CCC[C@H]1Cc1cn(C)c2ncccc12)C(C)(C)C [W] | < 100
11 | CN[C@@H](C)C(=O)N[C@H](C(=O)N1CC[C@@H](O)[C@H]1Cc1c[nH]c2ccccc12)C(C)C [XX′] | < 100
12 | CN[C@@H](C)C(=O)N[C@H](C(=O)N1CCC[C@H]1Cc1cn(C)c2ncccc12)C(C)(C)C [X] | < 100
13 | CC[C@H](NC)C(=O)N[C@H](C(=O)N1CC[C@H](O)[C@H]1Cc1c(Cl)[nH]c2cc(F)ccc12)C(C)C [Z′] | < 100
14 | AAAA | > 100

Further lines, results first:

Row | Kd [nM] | Molecule
15 | < 100 | CCN[C@@H](C)C(=O)N[C@H](C(=O)N1CC[C@@H](O)[C@H]1Cc1c(-c2ccc(F)cc2)[nH]c2ccccc12)[C@@H](C)OC [LLL]
16 | < 100 | CC[C@H](NC)C(=O)N[C@H](C(=O)N1CC[C@@H](O)[C@H]1Cc1c(-c2ccc(F)cc2)[nH]c2ccccc12)[C@@H](C)OC [MMM]
17 | < 100 | CN[C@H](C(=O)N[C@H](C(=O)N1CC[C@@H](O)[C@H]1Cc1c[nH]c2ccccc12)C(C)(C)C)C1CC1 [MM′]
18 | < 100 | CC[C@H](NC)C(=O)N[C@H](C(=O)N1CC[C@@H](O)[C@H]1Cc1c[nH]c2ccccc12)C(C)(C)C [NN′]
19 | < 100 | CN[C@@H](C)C(=O)N[C@H](C(=O)N1CC[C@@H](O)[C@H]1Cc1c[nH]c2ccccc12)C(C)(C)C [PP′]
20 | > 100 | CN[C@H](C(=O)N[C@H](C(=O)N1CC[C@@H](O)[C@H]1Cc1c[nH]c2ccccc12)C(C)C)C1CC1 [TT′]
21 | < 100 | CC[C@H](NC)C(=O)N[C@H](C(=O)N1CC[C@@H](O)[C@H]1Cc1c[nH]c2ccccc12)C(C)C [UU′]
22 | > 100 | CC[C@H](NC)C(=O)N[C@H](C(=O)N1CCC[C@H]1Cc1cn(C)c2ncccc12)C(C)(C)C [V]
23 | > 100 | CC[C@H](NC)C(=O)N[C@H](C(=O)N1CC[C@H](OC)[C@H]1Cc1c(Cl)[nH]c2cc(F)ccc12)C(C)C [V′]
24 | > 100 | CN[C@@H](C)C(=O)N[C@H](C(=O)N1C[C@@H](O)C[C@H]1C[C@H]1CN(C(C)=O)c2ccccc21)[C@@H](C)OC [WWW]
25 | < 100 | CN[C@@H](C)C(=O)N[C@H](C(=O)N1CC[C@H](O)[C@H]1Cc1c(Cl)[nH]c2cc(F)ccc12)C1CCCCC1 [W′]
26 | < 100 | CN[C@@H](C)C(=O)N[C@H](C(=O)N1CC[C@H](O)[C@H]1Cc1c(Cl)[nH]c2cc(F)ccc12)C(C)(C)C [Y′]
27 | < 100 | CN[C@@H](C)C(=O)N[C@H](C(=O)N1CC[C@H](O)[C@H]1Cc1c[nH]c2ncccc12)C(C)(C)C [Z, N-{1-[3-Hydroxy-2-(1H-pyrrolo[2,3-b]pyridin-3-ylmethyl)-pyrrolidine-1-carbonyl]-2,2-dimethyl-propyl}-2-methylamino-propionamide]
28 | < 100 | CCc1ccc2c(c1)[C@H](C[C@@H]1C[C@H](O)CN1C(=O)[C@@H](NC(=O)[C@H](C)NC)[C@@H](C)OC)CN2C(C)=O [ZZZ]
29 | < 100 | CCN[C@@H](C)C(=O)N[C@H](C(=O)N1CC[C@@H](O)[C@H]1Cc1c(-c2ccc(F)cc2)[nH]c2ccccc12)C(C)C [ZZ′]
30 | > 100 | EEEE
